In PubChem BioAssay AID179 (DTP/NCI, 2004):
The source made the active and inactive calls.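 The calls were made as follows: active = compounds giving half or more protection of infected cells from virus-caused growth loss, again on retest; inactive = the rest.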 Where a SMILES comes first, the peptide text is derived from it. The star is where a group is joined. Boc = CC(C)(C)OC(=O)*

Tested on: CEM cells HIV-1 protection, formazan growth assay
Assay: NCI AIDS Antiviral Assay
Details: for IC50: measured here: growth of uninfected CEM cells
Outline: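 Human CEM cells, uninfected and HIV-1-infected, received five drug concentrations, and growth was read by soluble formazan assay. Compounds giving at least 50% protection were retested; reproducible 100% protection defined confirmed active.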

Row | Compound | outcome | EC50 | IC50
1 | CC1=C(/C=C/C2=CC(=C\C(=O)O)/CC(C3=C(C)CCCC3(C)C)C2)C(C)(C)CCC1 (centres undefined) | inactive |  | 
2 | COc1ccc(C2c3c(-c4ccccc4)nn(-c4ccccc4)c3Oc3ncn(N)c(=N)c32)cc1OC (centres undefined) |  | > 200 µM | 30.2 µM
3 | CCOC(=O)c1nc2c3c(ncn2n1)Oc1c(c(-c2ccccc2)nn1-c1ccccc1)C3c1ccc(Cl)cc1 (centres undefined) |  | > 200 µM | > 200 µM
4 | CC(O)C1OC(n2cnc3c(=O)[nH]c(N)nc32)C(O)C1O (centres undefined) |  | > 170 µM | > 170 µM
5 | CC(C)OP(=O)(OC(C)C)/C(=N/Nc1ccccc1[N+](=O)[O-])NNC(=O)c1ccccc1 |  | > 1.17 µM | > 1.17 µM
6 | O/N=C1/C(=C/c2ccc3c(c2)OCO3)CCCC1C(NO)c1ccc2c(c1)OCO2 (centres undefined) |  | > 12.6 µM | > 12.6 µM
7 | CC1c2cc(c3c(c2O)CN([C@@H](C)C2CCCCC2)CO3)C(C)c2cc(c3c(c2O)CN([C@@H](C)C2CCCCC2)CO3)C(C)c2cc(c3c(c2O)CN([C@@H](C)C2CCCCC2)CO3)C(C)c2cc1c1c(c2O)CN([C@@H](C)C2CCCCC2)CO1 (some centres undefined) |  | > 100 µM | 1.74 µM
8 | COc1cccc2c1OC(=O)C(S(=O)(=O)c1ccccc1)C2 (centres undefined) |  | > 562 µM | > 562 µM
9 | CCOP(=O)(OCC)/C(C#N)=C/c1ccc(N(C)C)cc1 |  | > 813 µM | 437 µM
10 | Cc1ccc(Nc2sc(C)cc2C#N)c([N+](=O)[O-])c1 |  | > 200 µM | 178 µM
11 | Oc1[nH]c2ccccc2c1N=NC1=NCCCCN1 |  | > 200 µM | > 200 µM
12 | CC(=O)SCCCn1c(=O)n(CCCSC(C)=O)c(=O)n(CCCSC(C)=O)c1=O |  | > 200 µM | 12.3 µM
13 | C[C@]12CCNC(=O)C=C1CC[C@@H]1C2CC[C@@]2(C)C1CC[C@@H]2O (some centres undefined) | inactive |  | 
14 | H-HSFNCGGEFFY-OH | inactive |  | 
15 | S=C1N=C(Cl)/C(=C\c2ccccc2)N1 |  | > 200 µM | > 200 µM
16 | Cc1ccc(N=NC(C2=NC(=O)CS2)c2nc3ccccc3[nH]2)cc1 (centres undefined) |  | > 7.41 µM | > 7.41 µM
17 | O=C(N/S(=N/S(=O)(=O)c1ccc(Br)cc1)C(Cl)(Cl)Cl)c1ccccc1 (centres undefined) |  | > 200 µM | > 200 µM
18 | CC1=NN2C(c3ccc([N+](=O)[O-])cc3)=CSC2=NC(C)(C)C1 |  | > 158 µM | > 158 µM
19 | CC(C)N(C(C)C)P1O[PH+](N(C(C)C)C(C)C)OP(N(C(C)C)C(C)C)O[PH+](N(C(C)C)C(C)C)O1.[C-]#[O+].[C-]#[O+].[C-]#[O+].[C-]#[O+].[W] (centres undefined) |  | > 200 µM | > 200 µM
20 | CC(C(=O)O)n1c(=O)ssc1=O (centres undefined) |  | 63.1 µM | 123 µM
21 | COc1c2c(cc3c1[C@@H]1Oc4c(ccc(O)c4CC=C(C)C)[C@@H]1CO3)OC(C)(C)C=C2 |  | 2.24 µM | 23.4 µM
22 | CCOC(=O)c1c(-c2ccc(Cl)cc2)c(C#N)c(=S)n(C2OC(COC(C)=O)C(OC(C)=O)C(OC(C)=O)C2OC(C)=O)c1-c1ccccc1 (centres undefined) |  | > 200 µM | 77.6 µM

Row | Compound | outcome | EC50 | IC50
23 | O=c1c(O)c(O)c1=O | inactive |  | 
24 | CCOC(=O)CC(c1ccccc1)C(C)(C(=O)OCC)C(=O)OCC (centres undefined) | inactive |  | 
25 | CCOc1ccc(Nc2nc(C)c(C(=O)/C=C/c3ccc(Cl)cc3Cl)s2)cc1 |  | > 22.9 µM | 20 µM
26 | Cc1cc(=O)cc2sc3cc(Cl)ccc3nc1-2 |  | > 10.5 µM | > 10.5 µM
27 | COC1=CC(=O)c2nc(C)ccc2C1=O | inactive |  | 
28 | c1ccc2c(c1)c1c(n2CCOCCN2CCOCC2)CCCC1 |  | > 200 µM | 112 µM
29 | Cc1cc(C)c(O)c(CN(Cc2ccccn2)Cc2ccccn2)c1 | inactive |  | 
30 | O=S(=O)(O)c1cc(N=Cc2cc(S(=O)(=O)O)c3cccnc3c2O)ccc1/C=C\c1ccc(N=Cc2cc(S(=O)(=O)O)c3cccnc3c2O)cc1S(=O)(=O)O |  | > 38.9 µM | > 38.9 µM
31 | COc1cc(/C=C(\C)[N+](=O)[O-])cc(OC)c1 |  | > 200 µM | 3.39 µM
32 | COc1cc(OC)c(-c2oc3ccccc3c(=O)c2O)c(OC)c1 | inactive |  | 
33 | O=c1c(SCc2ccccc2F)c(SCc2ccccc2F)cnn1-c1ccccc1 |  | > 11.5 µM | 4.9 µM
34 | O=C(CC1=Nc2nnc(-c3nnc4n3C(=O)C(CC(=O)C3CC3)=N4)n2C1=O)C1CC1 |  | > 24.5 µM | > 24.5 µM
35 | CC1OC(OP(=O)(OCc2ccccc2)OCc2ccccc2)C(OC(=O)c2ccccc2)C(OC(=O)c2ccccc2)C1I (centres undefined) |  | > 25.1 µM | > 25.1 µM
36 | COC(=O)C=Cc1ccc2nncnc2c1 (mixture of isomers) |  | > 200 µM | 44.7 µM
37 | COc1ccc(C(c2ccc3cccnc3c2O)c2ccc3cccnc3c2O)cc1 | inactive |  | 
38 | CC(C)(C)OC(=O)NCCCCC(N)NC(=O)c1ccccc1 (centres undefined) |  | > 200 µM | > 200 µM
39 | CCOC(=O)/C(=C/c1cccc(Cl)c1)C(=O)c1ccccc1 |  | > 12 µM | > 12 µM
40 | COc1cc2c(cc1OC)C1Cc3ccccc3CN1CCC2 (centres undefined) |  | > 200 µM | 141 µM
41 | O=[N+]([O-])c1ccc(CSCc2ccc([N+](=O)[O-])cc2)cc1 |  | > 200 µM | > 200 µM
42 | COC(=O)C1Cc2cc3c(cc2C1)CCC3 |  | > 200 µM | > 200 µM
43 | O=[N+]([O-])c1cccc2nc3ccccc3c(NCCNCCO)c12 |  | > 2 µM | 0.0316 µM
44 | COC(=O)CNC(=O)C(CC(C)C)NC(=O)C(CC(C)C)NC(=O)OC(C)(C)C (stereo not drawn) (Boc-Leu-Leu-Gly-OMe; configuration not given here) | inactive |  | 

Row | Compound | outcome | EC50 | IC50
45 | O/N=C1/CCCC/C1=C/c1ccc(Cl)cc1 | inactive |  | 
46 | CC(=O)c1c(-c2ccco2)c(C#N)c(=S)n(C2OC(CO)C(O)C(O)C2O)c1-c1ccccc1 (centres undefined) |  | > 200 µM | 75.9 µM
47 | COc1nc2c(c(=O)n1C)N[C@@H]1[C@@H](O)[C@H](O)CO[C@@H]1N2 |  | > 200 µM | > 200 µM
48 | CCOc1ccccc1NC(=O)C(=O)C1C(=O)Nc2ccccc2S1=O (centres undefined) | inactive |  | 
49 | Cc1cc(S(=O)(=O)Nc2nc3cscc3c(=O)n2N)c(S)cc1Cl |  | 33.9 µM | 132 µM
50 | N#Cc1nc(CCC(c2nc(C#N)c(N)o2)N2C(=O)c3ccccc3C2=O)oc1N (centres undefined) |  | > 200 µM | > 200 µM
51 | Cn1c([C@H](C#N)C(=O)c2cc(O)ccc2[N+](=O)[O-])nc2ccccc21 |  | > 200 µM | > 200 µM
52 | COC(=O)c1ccccc1NC(=O)C(=O)Cc1nc2c3c(ccc2[nH]c1=O)C(=O)c1ccccc1C3=O |  | > 20.4 µM | > 20.4 µM
53 | CCOC(=O)CN(c1sc(C)c(C)c1C(=O)OCC)S(=O)(=O)c1ccc(C)cc1 |  | > 200 µM | 11.7 µM
54 | C[N+]1(C)CCCC1C(=O)[O-] (centres undefined) |  | > 1740 µM | > 1740 µM
55 | O=c1[nH]c2cnn(-c3ccccc3)c2c(=O)n1O |  | > 200 µM | 21.4 µM
56 | c1cc2c3c(c1)[I+]c1cccc(c1-3)[I+]2 |  | > 100 µM | 0.12 µM
57 | CCn1c(O)c(C=Nc2ccccc2)s/c1=N/Nc1ncc(CC(=O)Nc2ccccc2C)s1 |  | > 200 µM | 170 µM
58 | CSC1=N/C(=C\c2ccccc2)C(=O)N1CN1CCCCC1 |  | > 200 µM | 115 µM
59 | CN1C2=CC=CC=CC2=[N+](C)C1C(=C=[N-])C#N (centres undefined) |  | > 363 µM | 245 µM
60 | CCOP(=O)(OCC)OC1c2[nH]ccc2-c2cc(C(=O)OC)[nH]c2C1OC (centres undefined) |  | > 200 µM | 102 µM
61 | NC(CSC(c1ccccc1)(c1ccccc1)c1ccccc1)C(=O)O (centres undefined) |  | > 49 µM | 0.813 µM
62 | COc1cc(N=Nc2ccc(S(=O)(=O)O)cc2)c(C)cc1N=Nc1cc(S(=O)(=O)O)c(NC(=O)c2ccc(N)cc2)cc1NC(C)=O |  | 13.2 µM | > 200 µM
63 | O=C1C(=Cc2c(O)cc(O)cc2O)C(=O)c2ccccc21 |  | > 17.8 µM | > 17.8 µM
64 | CP1(=S)CC[C@H]2C3=C(CC[C@@H]21)CC(=O)CC3 (some centres undefined) | inactive |  | 
65 | CC1=CC2=C(OCO1)C(=O)c1ccccc1C2=O | inactive |  | 
66 | Oc1ccc2c(c1)OCC1(O)Cc3cc(O)c(O)cc3C21 (centres undefined) | inactive |  | 

Row | Compound | outcome | EC50 | IC50
67 | Clc1nc2cc3nc(Cl)c(Cl)nc3cc2nc1Cl |  | > 50.1 µM | 33.1 µM
68 | CN(C)c1ccc(C(c2cc3c(cc2O)OCO3)N2CCOCC2)cc1 (centres undefined) |  | > 72.4 µM | 12.9 µM
69 | COc1ccc2[nH]c3c(c2c1)CC(=S)N1CCCC(CC3=O)C1 (centres undefined) |  | > 200 µM | 61.7 µM
70 | O=C(O)c1cc(C(=CCC23CC4CC(CC(C4)C2)C3)c2cc(Cl)c(O)c(C(=O)O)c2)cc(Cl)c1O |  | > 200 µM | 105 µM
71 | CCOC(=O)C1=C(O)C(=O)c2ccsc2C1=O |  | > 708 µM | 120 µM
72 | S=c1[nH]nc2n1NC(c1ccccc1)=NN2 |  | > 295 µM | > 295 µM
73 | C[C@H](OCc1ccccc1)C(=O)N1CCS(=O)(=O)N2CCC[C@H]2C1=O |  | > 676 µM | > 676 µM
74 | CCOC(=O)c1oc2cc3c(c4c2c1-c1ccccc1N4C)C=CC(C)(C)O3 |  | > 200 µM | 120 µM
75 | Brc1ccc(/C=C2\C=Cc3ccccc32)cc1 |  | > 25.7 µM | > 25.7 µM
76 | Cc1ccc(Nc2nc(NS(=O)(=O)c3cc(C(=O)Nc4ccc(Cl)cc4)c(Cl)cc3S)n[nH]2)cc1 |  | > 195 µM | 178 µM
77 | CC[C@@]1(OC(=O)CN(C)C)C(=O)OCc2c1cc1n(c2=O)Cc2cc3ccccc3nc2-1 |  | > 10 µM | 0.0229 µM
78 | CO/N=C1\CC(NC(=O)C(F)(F)F)c2ccsc21 (centres undefined) |  | > 200 µM | > 200 µM
79 | C[C@@H](CCO)OC1OC(COC(=O)C(C)(C)C)C(OC(=O)C(C)(C)C)C(OC(=O)C(C)(C)C)C1OC(=O)C(C)(C)C (some centres undefined) |  | > 200 µM | 12 µM
80 | O=C1OCC(CN2CCC(n3c(=O)[nH]c4ccccc43)CC2)=C1c1ccccc1 |  | > 200 µM | 30.9 µM
81 | Clc1cc(Br)c2c3c(c(Br)cc(Cl)c13)C(Br)=C2Br |  | > 200 µM | 20 µM
82 | O=c1cc(N2CCCC2)[nH]c(=O)n1Cc1ccccc1 | inactive |  | 
83 | O=C(OCCN=C1c2ccccc2CCc2ccccc21)c1cc([N+](=O)[O-])cc([N+](=O)[O-])c1 |  | > 200 µM | 70.8 µM
84 | Nc1nnc(Cc2ccccc2[N+](=O)[O-])c(=O)[nH]1 |  | > 29.5 µM | > 29.5 µM
85 | CC(=O)N1CCc2[nH]c3ccccc3c2CC1 |  | > 575 µM | 234 µM
